Test results reported in patent US20240101570A1 (AMGEN INC., priority 2020, published 2024).

Columns and labels:
HCT116 MTAP null cells = assay: HCT116 MTAP null cell proliferation / viability (CellTiter-Glo, 6 days); format: cell-based; conditions: HCT116-MTAP null, 144 h, HCT116 MTAP null cells, 6 days, CellTiter-Glo; read-out: HCT-116 MTAP null IC50
How it was run: (§1)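 IC50 values derive from sigmoidal dose-response fits, some with Hill slope fixed at −1 and top constrained to 100%, others from 4-parameter logistic models. They reflect CellTiter-Glo viability after 6 days of compound exposure at up to 10 or 50 μM.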

HCT116 WT cells = assay: HCT116 WT cell proliferation / viability (CellTiter-Glo, 6 days); format: cell-based; conditions: Homo sapiens, HCT-116, 144 h, HCT116 WT cells, 6 days, CellTiter-Glo; read-out: HCT-116 WT IC50
How it was run: as §1

Question: Which results are given for COC[C@@H](C)N(Cc1ccc(C(F)(F)F)cn1)C(=O)c1cc2c3c(c(N)nc2cn1)COC3 [Example 728, 4-amino-N-((2R)-1-methoxy-2-propanyl)-N-((5-(trifluoromethyl)-2-pyridinyl)methyl)-1,3-dihydrofuro[3,4-c][1,7]naphthyridine-8-carboxamide]?
Answer: IC50 (HCT116 MTAP null cells): 47 nM; IC50 (HCT116 WT cells): 663 nM

Question: For Nc1nc2cc(F)c(C(=O)N(Cc3ccc(C(F)(F)F)cn3)c3cnn(C(F)(F)F)c3)cc2c2c1COC2 [Example 729, 4-amino-7-fluoro-N-(1-(trifluoromethyl)-1H-pyrazol-4-yl)-N-((5-(trifluoromethyl)-2-pyridinyl)methyl)-1,3-dihydrofuro[3,4-c]quinoline-8-carboxamide], which IC50 (HCT116 MTAP null cells) is on record?
Answer: 19 nM

Question: And the IC50 (HCT116 WT cells)?
Answer: 534 nM

Question: For Nc1nc2cc(F)c(C(=O)N(Cc3ccc(C(F)(F)F)nn3)CC3CC3)cc2c2c1COC2 [Example 730, 4-amino-N-(cyclopropylmethyl)-7-fluoro-N-((6-(trifluoromethyl)-3-pyridazinyl)methyl)-1,3-dihydrofuro[3,4-c]quinoline-8-carboxamide], which IC50 (HCT116 MTAP null cells) is on record?
Answer: 17 nM

Question: What about the IC50 (HCT116 WT cells) of the same molecule?
Answer: 620 nM

Question: For Cn1ncc2c3cc(C(=O)N(Cc4ccc(C(F)(F)F)nn4)CC4CC4)c(F)cc3nc(N)c21 [Example 731, 4-amino-N-(cyclopropylmethyl)-7-fluoro-3-methyl-N-((6-(trifluoromethyl)-3-pyridazinyl)methyl)-3H-pyrazolo[3,4-c]quinoline-8-carboxamide], which IC50 (HCT116 MTAP null cells) is on record?
Answer: 47 nM

Question: What about the IC50 (HCT116 WT cells) of the same molecule?
Answer: 2090 nM

Question: What does the source list for Nc1nc2cnc(C(=O)N(Cc3ccc(C(F)(F)F)cn3)c3cnn(C(F)(F)F)c3)cc2c2c1COC2 [Example 732, 4-amino-N-(1-(trifluoromethyl)-1H-pyrazol-4-yl)-N-((5-(trifluoromethyl)-2-pyridinyl)methyl)-1,3-dihydrofuro[3,4-c][1,7]naphthyridine-8-carboxamide]?
Answer: IC50 (HCT116 MTAP null cells): 87 nM; IC50 (HCT116 WT cells): 2850 nM

Question: CC(C)N(Cc1ccc(C(F)(F)F)cc1)C(=O)c1cc2c3c(c(N)nc2cn1)COC3 [Example 733, 4-amino-N-(2-propanyl)-N-(4-(trifluoromethyl)benzyl)-1,3-dihydrofuro[3,4-c][1,7]naphthyridine-8-carboxamide] was tested. Which IC50 (HCT116 MTAP null cells) did it give?
Answer: 290 nM

Question: And the IC50 (HCT116 WT cells)?
Answer: 6300 nM

Question: Nc1nc2cnc(C(=O)N(Cc3ccc(C(F)(F)F)cc3)C3CC3)cc2c2c1COC2 [Example 734, 4-amino-N-cyclopropyl-N-(4-(trifluoromethyl)benzyl)-1,3-dihydrofuro[3,4-c][1,7]naphthyridine-8-carboxamide] was tested. Which IC50 (HCT116 MTAP null cells) did it give?
Answer: 383 nM

Question: And the IC50 (HCT116 WT cells)?
Answer: 14400 nM

Question: C[C@@H](c1ccc(C(F)(F)F)cn1)N(C(=O)c1ccc2nc(N)c3c(c2c1)COC3)C1CC1 [Example 735, 4-amino-N-cyclopropyl-N-((1S)-1-(5-(trifluoromethyl)-2-pyridinyl)ethyl)-1,3-dihydrofuro[3,4-c]quinoline-8-carboxamide] was tested. Which IC50 (HCT116 MTAP null cells) did it give?
Answer: 5500 nM

Question: And the IC50 (HCT116 WT cells)?
Answer: 36200 nM

Question: For C[C@H](c1ccc(C(F)(F)F)cn1)N(C(=O)c1ccc2nc(N)c3c(c2c1)COC3)C1CC1 [Example 736, 4-amino-N-cyclopropyl-N-((1R)-1-(5-(trifluoromethyl)-2-pyridinyl)ethyl)-1,3-dihydrofuro[3,4-c]quinoline-8-carboxamide], which IC50 (HCT116 MTAP null cells) is on record?
Answer: 127 nM

Question: And the IC50 (HCT116 WT cells)?
Answer: 4890 nM

Question: What does the source list for CCN(C(=O)c1cc2c3c(c(N)nc2cc1Cl)COC3)[C@H](C)c1ccc(C(F)(F)F)cn1 [Example 738, 4-amino-7-chloro-N-ethyl-N-((1R)-1-(5-(trifluoromethyl)-2-pyridinyl)ethyl)-1,3-dihydrofuro[3,4-c]quinoline-8-carboxamide]?
Answer: IC50 (HCT116 MTAP null cells): 13 nM; IC50 (HCT116 WT cells): 430 nM

Question: For Cn1cc(N(Cc2ccc(C(F)(F)F)cn2)C(=O)c2cc3c(cc2F)nc(N)c2cnn(C)c23)cn1 [Example 740, 4-amino-7-fluoro-1-methyl-N-(1-methyl-1H-pyrazol-4-yl)-N-((5-(trifluoromethyl)-2-pyridinyl)methyl)-1H-pyrazolo[4,3-c]quinoline-8-carboxamide], which IC50 (HCT116 MTAP null cells) is on record?
Answer: 5 nM

Question: And the IC50 (HCT116 WT cells)?
Answer: 100 nM

Question: Which results are given for Nc1nc2cc(Cl)c(C(=O)N(Cc3ccc(C(F)(F)F)nn3)CC3CC3)cc2c2c1COC2 [Example 741, 4-amino-7-chloro-N-(cyclopropylmethyl)-N-((6-(trifluoromethyl)-3-pyridazinyl)methyl)-1,3-dihydrofuro[3,4-c]quinoline-8-carboxamide]?
Answer: IC50 (HCT116 MTAP null cells): 42 nM; IC50 (HCT116 WT cells): 1020 nM

Question: For CCN(C(=O)c1ccc2nc(N)c3c(c2c1)COC3)[C@H](C)c1ccc(C(F)(F)F)cc1F [Example 742, 4-amino-N-ethyl-N-((1R)-1-(2-fluoro-4-(trifluoromethyl)phenyl)ethyl)-1,3-dihydrofuro[3,4-c]quinoline-8-carboxamide], which IC50 (HCT116 MTAP null cells) is on record?
Answer: 66 nM

Question: And the IC50 (HCT116 WT cells)?
Answer: 2500 nM

Question: With CCN(C(=O)c1ccc2nc(N)c3c(c2c1)COC3)[C@H](C)c1ccc(C(F)(F)F)cc1 [Example 743, 4-amino-N-ethyl-N-((1R)-1-(4-(trifluoromethyl)phenyl)ethyl)-1,3-dihydrofuro[3,4-c]quinoline-8-carboxamide] as the molecule, how does the IC50 (HCT116 MTAP null cells) read?
Answer: 15 nM

Question: And the IC50 (HCT116 WT cells)?
Answer: 1090 nM

Question: With C[C@H](c1ccc(C(F)(F)F)nn1)N(C(=O)c1cc2c3c(c(N)nc2cc1Cl)COC3)C1CCC1 [Example 744, 4-amino-7-chloro-N-cyclobutyl-N-((1R)-1-(6-(trifluoromethyl)-3-pyridazinyl)ethyl)-1,3-dihydrofuro[3,4-c]quinoline-8-carboxamide] as the molecule, how does the IC50 (HCT116 MTAP null cells) read?
Answer: 38 nM

Question: And the IC50 (HCT116 WT cells)?
Answer: 967 nM

Question: C[C@H](c1ccc(C(F)(F)F)nn1)N(C(=O)c1ccc2nc(N)c3c(c2c1)COC3)C1CCC1 [Example 745, 4-amino-N-cyclobutyl-N-((1R)-1-(6-(trifluoromethyl)-3-pyridazinyl)ethyl)-1,3-dihydrofuro[3,4-c]quinoline-8-carboxamide] was tested. Which IC50 (HCT116 MTAP null cells) did it give?
Answer: 246 nM

Question: What about the IC50 (HCT116 WT cells) of the same molecule?
Answer: 14800 nM

Question: For C[C@H](c1ccc(C(F)(F)F)cn1)N(C(=O)c1ccc2nc(N)c3c(c2c1)CO[C@@H]3C)C1CC1 [Example 746, (3R)-4-amino-N-cyclopropyl-3-methyl-N-((1R)-1-(5-(trifluoromethyl)-2-pyridinyl)ethyl)-1,3-dihydrofuro[3,4-c]quinoline-8-carboxamide], which IC50 (HCT116 MTAP null cells) is on record?
Answer: 34 nM

Question: What about the IC50 (HCT116 WT cells) of the same molecule?
Answer: 3460 nM

Question: What does the source list for CCOc1ccc(CN(CC)C(=O)c2cc3c4c(c(N)nc3cc2F)COC4)nn1 [Example 747, 4-amino-N-((6-ethoxy-3-pyridazinyl)methyl)-N-ethyl-7-fluoro-1,3-dihydrofuro[3,4-c]quinoline-8-carboxamide]?
Answer: IC50 (HCT116 MTAP null cells): 161 nM; IC50 (HCT116 WT cells): 5090 nM

Question: For CCN(C(=O)c1ccc2nc(N)c3c(c2c1)COC3)[C@H](c1ccc(C(F)(F)F)cn1)C1CC1 [Example 748, 4-amino-N-((S)-cyclopropyl(5-(trifluoromethyl)-2-pyridinyl)methyl)-N-ethyl-1,3-dihydrofuro[3,4-c]quinoline-8-carboxamide], which IC50 (HCT116 MTAP null cells) is on record?
Answer: 5350 nM

Question: What about the IC50 (HCT116 WT cells) of the same molecule?
Answer: 36400 nM

Question: CCOc1ccc(CN(C(=O)c2cc3c4c(c(N)nc3cn2)COC4)[C@H](C)c2ncccn2)nn1 [Example 749, 4-amino-N-((6-ethoxy-3-pyridazinyl)methyl)-N-((1R)-1-(2-pyrimidinyl)ethyl)-1,3-dihydrofuro[3,4-c][1,7]naphthyridine-8-carboxamide] was tested. Which IC50 (HCT116 MTAP null cells) did it give?
Answer: 177 nM

Question: What about the IC50 (HCT116 WT cells) of the same molecule?
Answer: 3340 nM

Question: Which results are given for Cn1cc(N(Cc2ccc(C(F)(F)F)nn2)C(=O)c2cc3c4c(c(N)nc3cc2F)COC4)cn1 [Example 750, 4-amino-7-fluoro-N-(1-methyl-1H-pyrazol-4-yl)-N-((6-(trifluoromethyl)-3-pyridazinyl)methyl)-1,3-dihydrofuro[3,4-c]quinoline-8-carboxamide]?
Answer: IC50 (HCT116 MTAP null cells): 23 nM; IC50 (HCT116 WT cells): 767 nM

Question: Which IC50 (HCT116 MTAP null cells) does the source give for Cn1cc(N(Cc2ccc(C(F)(F)F)nn2)C(=O)c2cc3c4c(c(N)nc3cc2Cl)COC4)cn1 [Example 751, 4-amino-7-chloro-N-(1-methyl-1H-pyrazol-4-yl)-N-((6-(trifluoromethyl)-3-pyridazinyl)methyl)-1,3-dihydrofuro[3,4-c]quinoline-8-carboxamide] here?
Answer: 17 nM

Question: What about the IC50 (HCT116 WT cells) of the same molecule?
Answer: 337 nM

Question: How did the IC50 (HCT116 MTAP null cells) turn out when CCOc1ccc(CN(CC2CC2)C(=O)c2cc3c4c(c(N)nc3cc2F)COC4)nn1 [Example 752, 4-amino-N-(cyclopropylmethyl)-N-((6-ethoxy-3-pyridazinyl)methyl)-7-fluoro-1,3-dihydrofuro[3,4-c]quinoline-8-carboxamide] was run?
Answer: 33 nM

Question: What about the IC50 (HCT116 WT cells) of the same molecule?
Answer: 771 nM

Question: How did the IC50 (HCT116 MTAP null cells) turn out when CCOc1ccc(CN(CC2CC2)C(=O)c2cc3c4c(c(N)nc3cn2)COC4)nn1 [Example 753, 4-amino-N-(cyclopropylmethyl)-N-((6-ethoxy-3-pyridazinyl)methyl)-1,3-dihydrofuro[3,4-c][1,7]naphthyridine-8-carboxamide] was run?
Answer: 124 nM

Question: What about the IC50 (HCT116 WT cells) of the same molecule?
Answer: 3890 nM

Question: CC(C)N(Cc1ccc(C(F)(F)F)cn1)C(=O)c1ccc2nc(N)c3ccncc3c2c1 [Example 754, 5-amino-N-(2-propanyl)-N-((5-(trifluoromethyl)-2-pyridinyl)methyl)benzo[c][2,6]naphthyridine-9-carboxamide] was tested. Which IC50 (HCT116 MTAP null cells) did it give?
Answer: 24 nM

Question: And the IC50 (HCT116 WT cells)?
Answer: 370 nM

Question: What does the source list for CC(C)N(Cc1ccc(C(F)(F)F)cn1)C(=O)c1ccc2nc(N)c3ncncc3c2c1 [Example 755, 5-amino-N-(2-propanyl)-N-((5-(trifluoromethyl)-2-pyridinyl)methyl)pyrimido[4,5-c]quinoline-9-carboxamide]?
Answer: IC50 (HCT116 MTAP null cells): 892 nM; IC50 (HCT116 WT cells): 6420 nM

Question: What does the source list for CC(C)N(Cc1ccc(C(F)(F)F)cn1)C(=O)c1cc2c(cn1)nc(N)c1ccncc12 [Example 756, 5-amino-N-(2-propanyl)-N-((5-(trifluoromethyl)-2-pyridinyl)methyl)pyrido[4,3-c][1,7]naphthyridine-9-carboxamide]?
Answer: IC50 (HCT116 MTAP null cells): 49 nM; IC50 (HCT116 WT cells): 744 nM

Question: For Cn1cc(N(Cc2ccc(C(F)(F)F)cn2)C(=O)c2ccc3nc(N)c4cnn(C)c4c3c2)cn1 [Example 757, 4-amino-1-methyl-N-(1-methyl-1H-pyrazol-4-yl)-N-((5-(trifluoromethyl)-2-pyridinyl)methyl)-1H-pyrazolo[4,3-c]quinoline-8-carboxamide], which IC50 (HCT116 MTAP null cells) is on record?
Answer: 26 nM

Question: And the IC50 (HCT116 WT cells)?
Answer: 1320 nM
